The supplement of paper PMC10307832

Key:
Assay in all cases: relative viability (nuclei count vs DMSO), 5 days (fraction); higher = more cells survive
IDH-C35 + Tozasertib = compound: Cc1ccccc1C(C(=O)NC1CCCCC1)N(C(=O)Cn1ccnc1C)c1cccc(F)c1 [IDH-C35] + Cc1cc(Nc2cc(N3CCN(C)CC3)nc(Sc3ccc(NC(=O)C4CC4)cc3)n2)n[nH]1 [Tozasertib] (partner 0.1 µM)
In short: (§1)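 Each reported value is a median over duplicate plates. It expresses relative viability: treated-well nuclei count divided by vehicle-well nuclei count. Lung cancer cell lines in 1536-well plates were dosed by pin tool a day after seeding, alone with one drug or with a fixed anchor-drug dose plus five library-drug doses (not always all listed) in √10 steps, and nuclei were counted after 5 days.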

[1] = compound: CC1=C(C(=NN1)C)CC2=C(C3=C(S2)N(C(=O)N(C3=O)C)CC(C)C)C(=O)N4C[C@@H](CO4)O + CC1(C)CCC(c2ccc(Cl)cc2)=C(CN2CCN(c3ccc(C(=O)NS(=O)(=O)c4ccc(N[C@H](CCN5CCOCC5)CSc5ccccc5)c(S(=O)(=O)C(F)(F)F)c4)cc3)CC2)C1 [Navitoclax] (partner 0.5 µM)
In short: as §1

IDH-C35 + Decitabine = compound: Cc1ccccc1C(C(=O)NC1CCCCC1)N(C(=O)Cn1ccnc1C)c1cccc(F)c1 [IDH-C35] + Nc1ncn([C@H]2C[C@H](O)[C@@H](CO)O2)c(=O)n1 [Decitabine] (partner 2 µM)
In short: as §1

IDH-C35 + Phenformin = compound: Cc1ccccc1C(C(=O)NC1CCCCC1)N(C(=O)Cn1ccnc1C)c1cccc(F)c1 [IDH-C35] + N=C(N)NC(=N)NCCc1ccccc1 [Phenformin] (partner 250 µM)
In short: as §1

Cell Line: UMC-11
- relative viability (IDH-C35 + Tozasertib; first compound 0.08 µM): 0.199
- relative viability (IDH-C35 + Tozasertib; first compound 0.253 µM): 0.198
- relative viability (IDH-C35 + Tozasertib; first compound 0.8 µM): 0.197
- relative viability (IDH-C35 + Tozasertib; first compound 2.53 µM): 0.198
- relative viability (IDH-C35 + Tozasertib; first compound 8 µM): 0.193
- relative viability ([1]; first compound 0.0025 µM): 0.31
- relative viability ([1]; first compound 0.007906 µM): 0.215
- relative viability ([1]; first compound 0.025 µM): 0.233
- relative viability ([1]; first compound 0.07906 µM): 0.211
- relative viability ([1]; first compound 0.25 µM): 0.199
- relative viability (IDH-C35 + Decitabine; first compound 0.08 µM): 0.572
- relative viability (IDH-C35 + Decitabine; first compound 0.253 µM): 0.724
- relative viability (IDH-C35 + Decitabine; first compound 0.8 µM): 0.576
- relative viability (IDH-C35 + Decitabine; first compound 2.53 µM): 0.609
- relative viability (IDH-C35 + Decitabine; first compound 8 µM): 0.619
- relative viability (IDH-C35 + Phenformin; first compound 0.08 µM): 0.317
- relative viability (IDH-C35 + Phenformin; first compound 0.253 µM): 0.337
- relative viability (IDH-C35 + Phenformin; first compound 0.8 µM): 0.33
- relative viability (IDH-C35 + Phenformin; first compound 2.53 µM): 0.313
- relative viability (IDH-C35 + Phenformin; first compound 8 µM): 0.291
